Source: patent US20230126893A1, “[(1,4,5-TRISUBSTITUTED-1H-PYRAZOL-3-YL)SULFANYL]ACETIC ACID DERIVATIVES, SALTS THEREOF, AND USE THEREOF AS ACTIVE HERBICIDAL INGREDIENTS” (BAYER AKTIENGESELLSCHAFT, priority 2020, published 2023)

Key:
Assay type in all cases: in vivo
Bassia scoparia [1] = assay: Pre-emergence herbicidal effect against KCHSC; conditions: 1280 g/ha, visual score after 3 weeks, 100% = plants have died, 0% = like control plants
Excerpt: (§1) 1. Pre-emergence herbicidal effect and crop plant compatibility Seeds of monocotyledonous and dicotyledonous weed plants and crop plants are laid out in sandy loam soil in wood-fibre pots and covered with soil. The compounds of the invention, formulated in the form of wettable powders (WP) or as emulsion concentrates (EC), are then applied to the surface of the covering soil as aqueous suspension or emulsion at a water application rate equating to 600 to 800 L/ha with addition of 0.2% wetting agent. After the treatment, the pots are placed in a greenhouse and kept under good growth conditions for the trial plants. The damage to the test plants is scored visually after a test period of 3 weeks by comparison with untreated controls (herbicidal activity in percent (%): 100% activity=the plants have died, 0% activity=like control plants). [table]

Setaria viridis [2] = assay: Pre-emergence herbicidal effect against SETVI; conditions: 1280 g/ha, visual score after 3 weeks, 100% = plants have died, 0% = like control plants
Outline: (§2)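 Visual rating against untreated controls after 3 weeks in greenhouse, from 0% (no difference) to 100% (dead plants). Compound, as WP or EC with 0.2% wetting agent in 600 to 800 L/ha water, applied to covering soil over seeds sown in sandy loam.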

Lolium rigidum = assay: Pre-emergence herbicidal effect against LOLRI; conditions: 1280 g/ha, visual score after 3 weeks, 100% = plants have died, 0% = like control plants
Outline: as §2

Echinochloa crus-galli [3] = assay: Post-emergence herbicidal effect against ECHCG; conditions: 1280 g/ha, visual score after about 3 weeks, 100% = plants have died, 0% = like control plants
Outline: (§3)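 Activity scored visually as percent damage relative to untreated plants (100% = dead) roughly 3 weeks post-spray. Plants at the one-leaf stage, 2–3 weeks old in sandy loam under greenhouse conditions, received WP/EC formulations in 600–800 l/ha water plus 0.2% wetting agent.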

Poa annua [4] = assay: Post-emergence herbicidal effect against POAAN; conditions: 1280 g/ha, visual assessment about 3 weeks after treatment, 100% = plants have died, 0% = like control plants
Outline: as §3

Abutylon threophrasti [5] = assay: Post-emergence herbicidal effect against ABUTH; conditions: 1280 g/ha, visual assessment about 3 weeks after treatment, 100% = plants have died, 0% = like control plants
Outline: as §3

Stellaria media [6] = assay: Pre-emergence herbicidal effect against STEME; conditions: 1280 g/ha, visual score after 3 weeks, 100% = plants have died, 0% = like control plants
Outline: as §2

Digitaria sanguinalis [7] = assay: Pre-emergence herbicidal effect against DIGSA; conditions: 1280 g/ha, visual score after 3 weeks, 100% = plants have died, 0% = like control plants
Outline: as §2

Echinochloa crus-galli [8] = assay: Pre-emergence herbicidal effect against ECHCG; conditions: 1280 g/ha, visual score after 3 weeks, 100% = plants have died, 0% = like control plants
Outline: as §2

Alopecurus myosuroides [9] = assay: Pre-emergence herbicidal effect against ALOMY; conditions: 1280 g/ha, visual score after 3 weeks, 100% = plants have died, 0% = like control plants
Outline: as §2

Bassia scoparia [10] = assay: Post-emergence herbicidal effect against KCHSC; conditions: 1280 g/ha, visual assessment about 3 weeks after treatment, 100% = plants have died, 0% = like control plants
Outline: as §3

Veronica persica [11] = assay: Pre-emergence herbicidal effect against VERPE; conditions: 1280 g/ha, visual score after 3 weeks, 100% = plants have died, 0% = like control plants
Outline: as §2

Veronica persica [12] = assay: Post-emergence herbicidal effect against VERPE; conditions: 1280 g/ha, visual assessment about 3 weeks after treatment, 100% = plants have died, 0% = like control plants
Outline: as §3

[13] = test system: Tripleurospermum inodorum; assay: Pre-emergence herbicidal effect against MATIN; conditions: 1280 g/ha, visual score after 3 weeks, 100% = plants have died, 0% = like control plants
Outline: as §2

Poa annua [14] = assay: Pre-emergence herbicidal effect against POAAN; conditions: 1280 g/ha, visual score after 3 weeks, 100% = plants have died, 0% = like control plants
Outline: as §2

Alopecurus myosuroides [15] = assay: Post-emergence herbicidal effect against ALOMY; conditions: 1280 g/ha, visual score after about 3 weeks, 100% = plants have died, 0% = like control plants
Outline: as §3

[16] = test system: Tripleurospermum inodorum; assay: Post-emergence herbicidal effect against MATIN; conditions: 1280 g/ha, visual assessment about 3 weeks after treatment, 100% = plants have died, 0% = like control plants
Outline: as §3

Stellaria media [17] = assay: Post-emergence herbicidal effect against STEME; conditions: 1280 g/ha, visual assessment about 3 weeks after treatment, 100% = plants have died, 0% = like control plants
Outline: as §3

Setaria viridis [18] = assay: Post-emergence herbicidal effect against SETVI; conditions: 1280 g/ha, visual assessment about 3 weeks after treatment, 100% = plants have died, 0% = like control plants
Outline: as §3

Amaranthus retroflexus [19] = assay: Post-emergence herbicidal effect against AMARE; conditions: 1280 g/ha, visual assessment about 3 weeks after treatment, 100% = plants have died, 0% = like control plants
Description: [table] 2. Post-emergence herbicidal effect and crop plant compatibility Seeds of monocotyledonous and dicotyledonous weed and crop plants are laid out in sandy loam soil in wood-fibre pots, covered with soil and cultivated in a greenhouse under good growth conditions. 2 to 3 weeks after sowing, the test plants are treated at the one-leaf stage. The compounds of the invention, formulated in the form of wettable powders (WP) or as emulsion concentrates (EC), are then sprayed onto the green parts of the plants as aqueous suspension or emulsion at a water application rate equating to 600 to 800 l/ha with addition of 0.2% wetting agent. After the test plants have been left to stand in the greenhouse under optimal growth conditions for about 3 weeks, the action of the preparations is assessed visually in comparison to untreated controls (herbicidal action in percent (%): 100% activity=the plants have died, 0% activity=like control plants).

Digitaria sanguinalis [20] = assay: Post-emergence herbicidal effect against DIGSA; conditions: 1280 g/ha, visual score after about 3 weeks, 100% = plants have died, 0% = like control plants
Outline: as §3

Amaranthus retroflexus [21] = assay: Pre-emergence herbicidal effect against AMARE; conditions: 1280 g/ha, visual score after 3 weeks, 100% = plants have died, 0% = like control plants
Excerpt: as §1

Abutylon threophrasti [22] = assay: Pre-emergence herbicidal effect against ABUTH; conditions: 1280 g/ha, visual score after 3 weeks, 100% = plants have died, 0% = like control plants
Excerpt: as §1

SMILES	Pre-emergence action against KCHSC (Bassia scoparia [1])	Pre-emergence action against SETVI (Setaria viridis [2])	Pre-emergence action against LOLRI (Lolium rigidum)	Post-emergence action against ECHCG (Echinochloa crus-galli [3])	Post-emergence action against POAAN (Poa annua [4])	Post-emergence action against ABUTH (Abutylon threophrasti [5])	Pre-emergence action against STEME (Stellaria media [6])	Pre-emergence action against DIGSA (Digitaria sanguinalis [7])	Pre-emergence action against ECHCG (Echinochloa crus-galli [8])	Pre-emergence action against ALOMY (Alopecurus myosuroides [9])	Post-emergence action against KCHSC (Bassia scoparia [10])	Pre-emergence action against VERPE (Veronica persica [11])	Post-emergence action against VERPE (Veronica persica [12])	Pre-emergence action against MATIN [13]	Pre-emergence action against POAAN (Poa annua [14])	Post-emergence action against ALOMY (Alopecurus myosuroides [15])	Post-emergence action against MATIN [16]	Post-emergence action against STEME (Stellaria media [17])	Post-emergence action against SETVI (Setaria viridis [18])	Post-emergence action against AMARE (Amaranthus retroflexus [19])	also measured
CCOC(=O)C(C)Sc1nn(-c2ccccc2F)c(-c2ccc(F)c(F)c2)c1Br (centres unmarked) [Example I-015]	100%	100%	100%	100%	100%	90%	100%	100%	100%	100%	90%	100%	100%	100%	100%	100%	–	–	–	–	–
COC(=O)CNC(=O)CSc1nn(-c2ccccc2F)c(-c2cccnc2)c1Br [VII-007]	90%	100%	–	90%	90%	90%	90%	–	100%	90%	90%	90%	90%	90%	100%	90%	90%	90%	90%	–	–
CCOC(=O)CSc1nn(-c2cc(F)ccc2F)c(-c2ccc(F)c(F)c2)c1Br [Example I-013]	90%	100%	100%	–	100%	90%	100%	100%	100%	100%	90%	100%	100%	100%	100%	100%	100%	100%	–	100%	Post-emergence action against DIGSA (Digitaria sanguinalis [20]): 100%; Pre-emergence action against AMARE (Amaranthus retroflexus [21]): 100%
CCOC(=O)C[S+]([O-])c1nn(-c2ccccc2F)c(-c2cncc(Cl)c2)c1Br (centres unmarked) [II-013]	90%	100%	100%	100%	100%	100%	100%	100%	100%	100%	90%	100%	100%	100%	100%	–	100%	100%	90%	90%	Pre-emergence action against AMARE (Amaranthus retroflexus [21]): 100%; Pre-emergence action against ABUTH (Abutylon threophrasti [22]): 90%
